In ChEMBL document CHEMBL3997799, “Synthesis and anti-proliferative activity evaluation of novel benzo[d][1,3] dioxoles-fused 1,4-thiazepines” (Eur J Med Chem, 2017):
pIC50: −log10 of the molar value.

Experiments:
[1] = test system: EC9706; assay: Antiproliferative activity against human EC9706 cells after 48 hrs by MTT assay; format: functional, cell-based; settings: EC9706, 48 h
[2] = test system: ECa-109 cell line; assay: Antiproliferative activity against human ECA109 cells after 48 hrs by MTT assay; format: functional, cell-based; settings: ECa-109, 48 h
[3] = Potency index, ratio of 5-fluorouracil IC50 to test compound IC50 for human ECA109 cells; format: functional
[4] = test system: EC9706; assay: Potency index, ratio of 5-fluorouracil IC50 to test compound IC50 for human EC9706 cells; format: functional

Compound | pIC50 [1] | pIC50 [2] | Ratio IC50 [3] | Ratio IC50 [4]
O=C1CSC(c2ccc(F)cc2)c2cc3c(cc2N1)OCO3 (stereo not given) | 3.98 | < 3.70 | – | –
O=C1CSC(c2ccccc2)c2cc3c(cc2N1)OCO3 (stereo not given) | 4.36 | 4.41 | – | –
O=C1CSC(c2cccs2)c2cc3c(cc2N1)OCO3 (stereo not given) | 4.16 | 4.02 | – | –
COc1cccc(C2SCC(=O)Nc3cc4c(cc32)OCO4)c1 (stereo not given) | 4.26 | 4.30 | – | –
O=C1CSC(c2ccc([N+](=O)[O-])cc2)c2cc3c(cc2N1)OCO3 (stereo not given) | 4.60 | 4.37 | – | –
O=c1[nH]cc(F)c(=O)[nH]1 [FLUOROURACIL] | 4.63 | 4.52 | – | –
COc1cc(OC)cc(C2SCC(=O)Nc3cc4c(cc32)OCO4)c1 (stereo not given) | 4.93 | 4.52 | – | –
COc1ccc(C2SCC(=O)Nc3cc4c(cc32)OCO4)cc1Br (stereo not given) | 5.08 | 4.79 | 2 - 3 | 2 - 3
Cc1ccc(C2SCC(=O)Nc3cc4c(cc32)OCO4)cc1 (stereo not given) | 4.77 | 4.56 | – | –
CC1SC(c2ccc(Cl)cc2)c2cc3c(cc2NC1=O)OCO3 (stereo not given) | < 3.70 | < 3.70 | – | –
COc1ccc(C2SCC(=O)Nc3cc4c(cc32)OCO4)cc1 (stereo not given) | 4.79 | 4.48 | – | –
O=C1CSC(c2ccc(Cl)cc2)c2cc3c(cc2N1)OCO3 (stereo not given) | 4.46 | 4.44 | – | –
CC1SC(c2cccc([N+](=O)[O-])c2)c2cc3c(cc2NC1=O)OCO3 (stereo not given) | 4.05 | 3.97 | – | –
Cc1ccccc1C1SCC(=O)Nc2cc3c(cc21)OCO3 (stereo not given) | 4.47 | 4.26 | – | –
Cc1ccc(C2SC(C)C(=O)Nc3cc4c(cc32)OCO4)cc1 (stereo not given) | < 3.70 | < 3.70 | – | –
O=C1CSC(c2cccc([N+](=O)[O-])c2)c2cc3c(cc2N1)OCO3 (stereo not given) | < 3.70 | < 3.70 | – | –
CC1SC(c2ccc([N+](=O)[O-])cc2)c2cc3c(cc2NC1=O)OCO3 (stereo not given) | 4.46 | 4.30 | – | –
COc1cc(C2SCC(=O)Nc3cc4c(cc32)OCO4)cc(OC)c1OC (stereo not given) | 4.15 | 3.89 | – | –
O=C1CSC(c2ccco2)c2cc3c(cc2N1)OCO3 (stereo not given) | 4.52 | 4.38 | – | –
